{"source": "patent US5434330A", "about": "“Process and apparatus for separation of constituents of gases using gas hydrates” (priority 1993, dated 1995)", "origin": "cited, not measured here", "key": {"[1]": {"settings": "for calculation at 253K"}, "[2]": {"settings": "in ethyl ether, 20° C."}, "[3]": {"settings": "25° C."}}, "note": "Read-outs that look alike come from different tables or passages of the source.", "data": [{"smiles": "N#N", "note": "[nitrogen]", "values": [{"measurement": "nitrogen-methanol Henry's law constant", "setting": "[1]; in methanol", "result": "3,632 atm"}, {"measurement": "nitrogen-water Henry's law constant", "setting": "[1]; in water", "result": "27,987 atm"}]}, {"smiles": "C", "note": "[methane]", "values": [{"measurement": "Ostwald coefficient", "setting": "[2]", "result": 1028}, {"measurement": "SOLUBILITY OF METHANE, HENRY'S CONSTANT H", "setting": "[3]; in Acetone", "result": 533, "unit": "atm"}, {"measurement": "SOLUBILITY OF METHANE, HENRY'S CONSTANT H", "setting": "[3]; in Ethanol", "result": 770, "unit": "atm"}, {"measurement": "SOLUBILITY OF METHANE, HENRY'S CONSTANT H", "setting": "[3]; in Methanol", "result": 1137, "unit": "atm"}, {"measurement": "SOLUBILITY OF METHANE, HENRY'S CONSTANT H", "setting": "[3]; in Water", "result": "39,052 atm"}, {"measurement": "methane-methanol Henry's law constant", "setting": "[1]; in methanol", "result": 824, "unit": "atm"}, {"measurement": "methane-water Henry's law constant", "setting": "[1]; in water", "result": "10,193 atm"}]}]}
